Columns and labels:
Histamine, H1 = Histamine, H1 (Bos taurus, UniProt P30546); assay: Binding specificity panel; conditions: 1.0E−6; average N=2
Source text: The percentage inhibition (average; N=2) for these receptors is shown below in Table 12.
Values in Table 12 are expressed as percentage inhibition of specific binding, and these values represent the average of replicate tubes at each of the concentrations tested.

M3 muscarinic receptor = molecular target: T1, M3 muscarinic receptor (Homo sapiens, UniProt P20309); assay: M3 binding assay ([3H]-scopolamine, N-methyl chloride displacement); conditions: average N=2
T1 construct: purchased PerkinElmer, Inc., Wellesley, Mass; host or cells: CHO cells
T1 sequence (P20309 whole entry): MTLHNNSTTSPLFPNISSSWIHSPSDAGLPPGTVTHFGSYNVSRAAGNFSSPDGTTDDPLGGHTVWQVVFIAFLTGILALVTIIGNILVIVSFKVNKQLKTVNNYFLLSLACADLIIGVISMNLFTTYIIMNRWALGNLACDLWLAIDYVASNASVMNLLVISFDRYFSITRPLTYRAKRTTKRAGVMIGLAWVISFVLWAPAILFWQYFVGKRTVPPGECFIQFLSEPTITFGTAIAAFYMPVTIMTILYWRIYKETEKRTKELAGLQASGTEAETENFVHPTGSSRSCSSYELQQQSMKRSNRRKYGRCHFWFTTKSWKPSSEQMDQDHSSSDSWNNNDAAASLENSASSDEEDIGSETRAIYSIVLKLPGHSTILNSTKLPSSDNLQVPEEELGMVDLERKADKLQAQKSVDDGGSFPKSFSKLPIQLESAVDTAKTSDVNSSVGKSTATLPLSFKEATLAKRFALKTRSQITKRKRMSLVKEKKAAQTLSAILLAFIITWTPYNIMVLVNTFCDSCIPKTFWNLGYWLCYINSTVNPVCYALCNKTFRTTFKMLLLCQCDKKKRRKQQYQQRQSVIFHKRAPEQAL

male Wistar rats = assay: SCORE-2000 sleep-wakefulness, locomotor activity and body temperature monitoring
H1 histamine receptor = molecular target: T2, H1 histamine receptor (Bos taurus, UniProt P30546); assay: H1 binding assay ([3H]pyrilamine displacement); parameters: species or system bovine; conditions: average N=2
T2 construct: the receptors were obtained from bovine cerebellar membrane tissue; from tissue; host or cells: bovine cerebellar membranes
T2 sequence (P30546 whole entry): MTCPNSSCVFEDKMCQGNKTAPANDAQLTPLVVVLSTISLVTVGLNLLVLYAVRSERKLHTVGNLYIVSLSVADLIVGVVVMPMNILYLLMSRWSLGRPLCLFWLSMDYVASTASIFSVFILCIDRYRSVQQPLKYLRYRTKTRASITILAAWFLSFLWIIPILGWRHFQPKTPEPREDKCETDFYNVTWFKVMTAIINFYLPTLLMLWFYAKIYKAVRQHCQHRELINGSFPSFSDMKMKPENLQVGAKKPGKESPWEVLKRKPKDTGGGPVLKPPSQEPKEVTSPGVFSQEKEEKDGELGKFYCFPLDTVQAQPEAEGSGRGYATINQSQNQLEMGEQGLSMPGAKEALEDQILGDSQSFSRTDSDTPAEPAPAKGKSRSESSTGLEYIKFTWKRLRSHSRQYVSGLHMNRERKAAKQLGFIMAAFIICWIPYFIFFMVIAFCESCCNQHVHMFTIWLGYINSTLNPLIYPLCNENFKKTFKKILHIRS

Chain of Histamine, H1 (P30546 whole entry): as above

CC(CC(=O)O)N1CCC(=C2c3ccc(F)cc3COc3ccccc32)CC1 (stereo not shown) [Compound 37]
percentage inhibition of specific binding (Histamine, H1): 23.13%
% Inhibition, M3 (M3 muscarinic receptor; concentration 1.0E−5): 4.27%
% Specific Binding, M3 (M3 muscarinic receptor; concentration 1.0E−5): 95.73%
% Inhibition, M3 (M3 muscarinic receptor; concentration 1.0E−6): 0.79%
% Specific Binding, M3 (M3 muscarinic receptor; concentration 1.0E−6): 99.21%
% Inhibition, M3 (M3 muscarinic receptor; concentration 1.0E−7): 5.85%
% Specific Binding, M3 (M3 muscarinic receptor; concentration 1.0E−7): 93.15%
% Inhibition, M3 (M3 muscarinic receptor; concentration 1.0E−8): −8.34%
% Specific Binding, M3 (M3 muscarinic receptor; concentration 1.0E−8): 108.34%
% Inhibition, M3 (M3 muscarinic receptor; concentration 1.0E−9): −0.65%
% Specific Binding, M3 (M3 muscarinic receptor; concentration 1.0E−9): 100.65%
% Specific Binding, M3 (M3 muscarinic receptor; concentration 3.0E−6): 94.59%
% Specific Binding, M3 (M3 muscarinic receptor; concentration 3.0E−7): 94.45%
% Inhibition, M3 (M3 muscarinic receptor; concentration 3.0E−8): 6.99%
% Specific Binding, M3 (M3 muscarinic receptor; concentration 3.0E−8): 93.01%
REM inhibition (male Wistar rats; 10 mg/kg): did not produce any
rebound insomnia (male Wistar rats; 10 mg/kg): did not produce any
reduction in body temperature (male Wistar rats; 10 mg/kg): no disproportional reduction
reduction in locomotor activity (LMA) (male Wistar rats; 10 mg/kg): no disproportional reduction
Cumulative NREM sleep time increase, adjusted for baseline and relative to vehicle (male Wistar rats; 10 mg/kg PO, CT-18): 53 min
absolute average sleep bout (male Wistar rats; 10 mg/kg PO, CT-18): 9 min
average sleep bout length increase, adjusted for baseline and relative to vehicle (male Wistar rats; 10 mg/kg PO, CT-18): 5.3 min
peak NREM sleep time (male Wistar rats; 10 mg/kg PO, CT-18): 64 % per hour
body temperature (male Wistar rats; 30 mg/kg): unacceptable drop in body temperature
reduction in LMA (male Wistar rats; 30 mg/kg): no disproportional reduction
Cumulative NREM sleep time increase, adjusted for baseline and relative to vehicle (male Wistar rats; 30 mg/kg PO, CT-18): 62 min
absolute average sleep bout (male Wistar rats; 30 mg/kg PO, CT-18): 9 min
absolute longest sleep bout post-treatment (male Wistar rats; 30 mg/kg PO, CT-18): 25 min
average sleep bout length increase, adjusted for baseline and relative to vehicle (male Wistar rats; 30 mg/kg PO, CT-18): 5.6 min
peak NREM sleep time (male Wistar rats; 30 mg/kg PO, CT-18): 72 % per hour
REM inhibition (male Wistar rats; 30 mg/kg, CT-18): did not produce any appreciable REM inhibition
% Inhibition, H1 (H1 histamine receptor; concentration 1.0E−5): 95.79%
% Specific Binding, H1 (H1 histamine receptor; concentration 1.0E−5): 3.21%
% Inhibition, H1 (H1 histamine receptor; concentration 1.0E−6): 93.75%
% Specific Binding, H1 (H1 histamine receptor; concentration 1.0E−6): 6.25%
% Inhibition, H1 (H1 histamine receptor; concentration 1.0E−7): 60.82%
% Specific Binding, H1 (H1 histamine receptor; concentration 1.0E−7): 39.18%
% Inhibition, H1 (H1 histamine receptor; concentration 1.0E−8): 8.60%
% Specific Binding, H1 (H1 histamine receptor; concentration 1.0E−8): 91.40%
% Inhibition, H1 (H1 histamine receptor; concentration 1.0E−9): 2.99%
% Specific Binding, H1 (H1 histamine receptor; concentration 1.0E−9): 97.01%
% Specific Binding, H1 (H1 histamine receptor; concentration 3.0E−6): 6.74%
% Inhibition, H1 (H1 histamine receptor; concentration 3.0E−7): 81.03%
% Specific Binding, H1 (H1 histamine receptor; concentration 3.0E−7): 18.97%
% Inhibition, H1 (H1 histamine receptor; concentration 3.0E−8): 30.37%
% Specific Binding, H1 (H1 histamine receptor; concentration 3.0E−8): 69.53%

Source: patent US7411069B2 (Hypnion, Inc., priority 2003, dated 2008)
